Measured values published in a melting point compilation (Tetko et al.; mined from patent text by program, amines drawn as free bases though some values may be those of a salt).

With `COc1ccc(Oc2ncnc(-c3ccc(C(F)(F)F)cc3F)c2N)cc1` the melting point was 129 to 130 °C. For `N#CCC1COc2ccccc2C1` (stereo unspecified), the melting point was 54 to 55.5 °C. In the case of `COCOc1cc(CCCOc2nn(Cc3ccccc3)cc2CC(=O)O)n(Cc2ccc(Cl)cc2Cl)n1`, the melting point is reported as 89.5 to 91.5 °C. In the case of `O=C1C(c2cc3c(cc2O)OCCCO3)c2ccccc2N1C(c1ccccc1)c1ccccc1` (stereo unspecified), the melting point is reported as 193 to 195 °C. Work on `Cc1ccc(C(=O)Nc2ccc(C(=O)N3Cc4ccccc4Cc4ccccc43)cc2)c(C)c1` yielded a melting point of 197 to 199 °C. With `Nc1ccc2ncnc(Nc3cc(Cl)c(Cl)cc3F)c2c1` the melting point was 265 °C. `COC(=O)C(Sc1ccccc1)c1ccc(Oc2ccc(Cl)cc2)cc1` (stereo unspecified) showed a melting point of 64 to 68.5 °C. `CC1(C)CON(Cc2ccc(Nc3cc4ccccc4c(=O)o3)cc2)C1=O` showed a melting point of 175 to 177 °C. `O=C(NC(Cc1ccccc1)C(=O)O)OCC1c2c(c3ccccc3c3ccccc23)-c2c1c1ccccc1c1ccccc21` (stereo unspecified) showed a melting point of 137 to 140 °C. Work on `CCCCCCCCCCCCCCCCC[C@@H](O)C[C@H]1OC(=O)[C@@H]1CCC` yielded a melting point of 84 to 85 °C. `CCC(=O)c1c(O)cccc1O` gave a melting point of 135 to 136 °C. Compound `COC(=O)[C@@H]1[C@@H](O[Si](C)(C)C(C)(C)C)CCN1C(=O)Nc1ccc(C#N)c(Cl)c1C` has a melting point of 123 to 125 °C. `CCn1ncc2c(Cl)c3c(nc21)C(O)c1ccccc1CC3` (stereo unspecified) showed a melting point of 128 to 130 °C. `Nc1ccccc1C(=O)c1ccccn1` gave a melting point of 145 to 146 °C. With `O=C(O)C=Cc1ccc(-n2ccccc2=O)cc1` the melting point was 279 to 282 °C. With `COc1ccccc(Br)c1=O` the melting point was 74 to 75 °C. `O=S(=O)(CCCCl)Nc1ccccc1OCc1ccc2ccccc2n1` gave a melting point of 100 to 101 °C. Work on `Cc1c(CCN(C)C(=O)OC(C)(C)C)c2cc(S(=O)(=O)c3cc(F)cc(F)c3)ccc2n1C` yielded a melting point of 158 to 162 °C. `Cc1c(Oc2ncc(C(F)(F)F)cc2Cl)nn(C(=O)NC(C)C)c1C` showed a melting point of 78 to 80 °C. For `Cn1nnnc1SCc1c(S(C)(=O)=O)ccc(C(=O)C2=C(Sc3ccccc3)CCCC2=O)c1Cl`, the melting point was 76 to 87 °C. `O=C(O)C(=O)c1ccc(CCCNC(=O)c2ccc3ccccc3c2)cc1` showed a melting point of 126 to 128 °C. `COCC(=O)C1CCC2C3CCC4CC(O)CCC4(C)C3C(=O)CC12C` (stereo unspecified) gave a melting point of 144 to 146 °C. In the case of `O=C1NCCCN1Cc1ccc2ccccc2c1`, the melting point is reported as 151 to 155 °C. Compound `COc1ccc(-c2cc3nc(N(C)C)c4ccccc4c3nn2)cc1` has a melting point of 160 to 162 °C. Compound `CCOC(=O)N1CCN(c2nc(NC3CC3)ccc2F)CC1` has a melting point of 68 to 70 °C. `CCc1ccc(Nc2c(F)c(F)cc(F)c2F)c(CC(=O)O)c1` gave a melting point of 165 to 169 °C. With `CCOC(=O)CCc1cn(Cc2cc(OCc3nc(-c4ccccc4)oc3C)no2)nc1OCC` the melting point was 82 to 83 °C. For `CCCOc1c(OC)cc(C(C#N)CCC(C#N)c2cc(OC)c(OC)c(OC)c2)cc1SC` (stereo unspecified), the melting point was 131 to 132 °C. In the case of `O=C1CCC2(c3c[nH]cn3)Cc3ccccc3C12` (stereo unspecified), the melting point is reported as 234 to 236 °C. In the case of `CCOc1ccc(NC(=S)SC)cc1F`, the melting point is reported as 108 °C. Compound `CC(C)(C(=O)Cl)C(=S)Cl` has a melting point of 112 to 114 °C. With `CCN(CC)CCCN1C(=O)NC(Cc2c[nH]c3ccc(Cl)cc23)C1=O` (stereo unspecified) the melting point was 186 °C. Compound `Cc1ccccc1C(=O)Nc1nc(-c2ccccc2)c(-c2ccc(=O)n(C(C)C)n2)s1` has a melting point of 221 to 222 °C. In the case of `Fc1ccc2c(C3=CCN(CC4COc5ccc6[nH]c(C(F)(F)F)nc6c5O4)CC3)c[nH]c2c1` (stereo unspecified), the melting point is reported as 215 to 220 °C. With `Nc1ccc2ncc(Br)cc2n1` the melting point was 168 to 169 °C. Compound `O=Cc1ccc(OCCN2C(=O)c3ccccc3C2=O)cc1` has a melting point of 138 °C. `Cc1c(-c2ccc(O)cc2)n(C(=O)c2ccc(OCCN3CCCCC3)cc2)c2ccc(O)cc12` gave a melting point of 127 to 130 °C. In the case of `CC[Si](CC)(CC)OC1C(=O)NC1c1cccs1` (stereo unspecified), the melting point is reported as 70 to 71 °C. `O=C(N=C1SCCN1Cc1cnc(Cl)s1)c1ccccc1` gave a melting point of 120 °C. Work on `CCCCOc1nc(N)c2nc(OC)n(CCS(=O)(=O)c3cccc(CC(=O)OC)c3)c2n1` yielded a melting point of 246 to 247 °C. Compound `Cc1ccc(NC(=S)NC(NC(=O)c2ccc(C)cc2)C(F)(F)F)cc1` (stereo unspecified) has a melting point of 192 to 193 °C. In the case of `COc1ccc(C2(C#N)CCC(=O)CC2)cc1OC1CCCC1`, the melting point is reported as 111 to 112 °C. In the case of `CCOC(=O)c1cn(CC)c2cc3c(cc2c1=O)OCO3`, the melting point is reported as 177 to 178 °C. `CCOC(=O)c1ccccc1C(=O)c1ccc2c(c1)C(C)(C)C(C)C2(C)C` (stereo unspecified) gave a melting point of 56 to 57 °C. For `COc1ccc2c(C(F)(F)F)cc(=O)[nH]c2c1NC(C)=O`, the melting point was 280 °C. Compound `Cc1cccc2c1nc(COc1ccc(Cl)cc1)n2CCC(C)C(=O)O` (stereo unspecified) has a melting point of 149 to 151 °C. `COc1ccc2c(=O)cc(C(=O)N[C@H]3CCN(C(=O)c4cc(C(F)(F)F)cc(C(F)(F)F)c4)[C@H](Cc4ccc(Cl)cc4)C3)oc2c1` showed a melting point of 198 to 200 °C. `CCOC(=O)c1cnn(-c2c(Cl)cc(Cl)cc2Cl)c1O` gave a melting point of 228 °C. For `c1cc(C2=NOC(C3CC3)C2)ccn1` (stereo unspecified), the melting point was 102 to 108 °C. `CCOCc1nc2c(N)nc3cc(OCCCN4CCCC4=O)ccc3c2n1CCCCNC(=O)OC(C)(C)C` gave a melting point of 134 to 136 °C. `Cc1ccccc1NC(=NC#N)NC(NC(=O)CCCc1ccccc1)C(C)(C)C` (stereo unspecified) showed a melting point of 153 to 154 °C. `COCc1sc(C(C)(O)c2ccsc2)nc1C` (stereo unspecified) gave a melting point of 71 to 73 °C. In the case of `COc1ccc(NC(=O)c2c[nH]c3c2C(=O)CC(C)(C)C3)c(F)c1`, the melting point is reported as 203 to 205 °C. `N#Cc1ccc(-c2cccc(-c3nc4cc(C#N)ccc4[nH]3)c2O)cc1` gave a melting point of 318 to 320 °C. With `C#CC1(O)CCC2C3C(C)CC4=CC(=O)CCC4C3CCC21CC` (stereo unspecified) the melting point was 182 to 184 °C. In the case of `O=C(NC1CCC(Oc2ccc(F)cc2)CC1)NC12CC3CC(CC(C3)C1)C2` (stereo unspecified), the melting point is reported as 243 °C. Work on `Cc1cccc(NC(=O)NC2N=C(C3CCCC3)c3ccccc3N(CC(=O)N3CC4CCC(CC4)C3)C2=O)c1` (racemic) yielded a melting point of 132 to 134 °C. Compound `O=C(NCCc1ccccn1)c1ccc2cc(C(=O)O)[nH]c2c1` has a melting point of 198 to 199 °C. `COCOc1cc(COc2nn(Cc3ccccc3)cc2CO)ccc1OCc1nc(-c2ccco2)oc1C` gave a melting point of 98 to 99 °C. `O=S(=O)(c1ccc(Cl)cc1)N1CCCC1c1ccc(C(F)(F)F)cc1` (racemic) gave a melting point of 107 °C. Compound `CSCC[C@H]1NC(=O)[C@@H]([C@H](C)c2cccc3ccccc23)NC1=O` has a melting point of 265 to 268 °C. With `CC1=C(C(=O)OC(C)(C)C)C(c2cccc(Cl)c2Cl)C(C(=O)OC(C)(C)C)=C(C)N1` the melting point was 144 to 145 °C. `O=C(OCc1ccccc1)N1CCN(c2ccc(-c3ccnc(Cl)n3)cn2)CC1` gave a melting point of 145 to 147 °C. For `O=c1cc(-c2cc3ccccc3[nH]2)oc2ccccc12`, the melting point was 157 to 158 °C. For `CCOC(=O)c1ccc2c(c1)C(=O)c1nc3ccccc3c(=O)n1-2`, the melting point was 270 to 273 °C. With `Cc1c(Br)c(C(F)(F)F)nn1C(C)C(=O)N(C)C` (stereo unspecified) the melting point was 86 to 88 °C. For `OCc1cc2cc(O)c(Cl)c(Cl)c2s1`, the melting point was 167 to 169 °C. Work on `Nc1cc(Oc2ccc3c(c2)OCCN3)ncn1` yielded a melting point of 140 to 141 °C. `Cc1ccc2c(=O)c(-c3nnnn3C)cn(C)c2c1` gave a melting point of 254 to 255 °C. For `CN(C)C=Cc1nc2ccc(F)cc2c(=O)n1-c1ccccc1Cl`, the melting point was 210 to 211 °C. Work on `COc1cc(CCC(=O)O)ccc1OCCCc1cn(-c2ccc(C(F)(F)F)cn2)nc1C` yielded a melting point of 136 to 137 °C. `Cc1nc(C(=O)O)c(OCc2ccccc2)c(=O)n1C` showed a melting point of 180 to 181 °C. In the case of `Cc1cc(C)c(-c2ccnc(Nc3ccc(F)cc3)n2)[nH]1`, the melting point is reported as 168 to 172 °C. Work on `Cc1cc([N+](=O)[O-])c(C)nc1O` yielded a melting point of 263 °C. In the case of `CC(C)(C)OC(=O)N1CCC(c2nc3ccc(-c4ccc(S(C)(=O)=O)cc4F)cc3o2)CC1`, the melting point is reported as 174 to 178 °C. In the case of `CSc1ccc(Oc2cccc(C=O)n2)cc1`, the melting point is reported as 60 to 63 °C. Work on `O=Cc1ccccc1-n1nnnc1CC(=O)C(F)(F)F` yielded a melting point of 128 °C. Compound `CNc1nc(C)c(-c2cn3ccc(C)cc3n2)s1` has a melting point of 220 to 221 °C. `CC(C)(C)c1ccc(/C=N/OCCCOc2ccc(C(=O)O)c(NC(=O)c3cc(C(F)(F)F)cc(C(F)(F)F)c3)c2)cc1` showed a melting point of 158 °C. `COc1ccc(OC)c(NC(=O)c2cccc3cc(O)ccc23)c1` gave a melting point of 165 to 166 °C. `COc1ccc(CS(=O)(=O)c2cc(OC)c(OC)c(OC)c2)cc1` showed a melting point of 95 to 97 °C. Work on `CC1(CC(=O)O)SCCC2=C1Cc1ccccc12` (stereo unspecified) yielded a melting point of 119 to 121 °C. Compound `CCCCCCNCCCS(=O)(=O)O` has a melting point of 144 to 147 °C. For `CCCn1c(COC)nc2c(N)nc3ccc(OCCCN4CCOCC4)cc3c21`, the melting point was 193 to 196 °C. For `Cc1c(Cl)c(C(C)(C)C)c(Cl)c(C)c1S(=O)(=O)Cl`, the melting point was 148 °C. `CCN(CC)CCCCOc1ccc(-c2nnc(CSCCOc3ccccc3)o2)cc1` gave a melting point of 35 to 38 °C. `Cc1nc(-c2ccccc2)nc(-c2cccc([N+](=O)[O-])c2)c1CNC(N)=S` showed a melting point of 227 to 229 °C. In the case of `C/C(=C\c1ccc(OC(C)C)cc1Oc1ncc(C(F)(F)F)cc1Cl)C(=O)NS(=O)(=O)NC1CCC(C)CC1` (stereo unspecified), the melting point is reported as 177 °C. For `COc1ccc(CSc2nnc(-c3ccnc(N)c3)o2)cc1F`, the melting point was 166 to 167 °C. Compound `OCCOc1cccc2ocnc12` has a melting point of 47 to 49 °C. With `O=C(O)c1cn([C@@H]2C[C@@H]2F)c2cc(F)ccc2c1=O` the melting point was 302 to 305 °C. With `OCc1nc(-c2ccc3c(c2)Nc2ccccc2S3)cs1` the melting point was 120 to 122 °C. `O=C1C(=O)c2ccccc2C2=C1SCC1(CCN(C(=O)c3ccc(-n4cccn4)cc3)CC1)O2` gave a melting point of 299 to 300 °C. `CC(=O)OC1CSC(Oc2cncc(C#N)c2)C(OC(C)=O)C1OC(C)=O` (stereo unspecified) showed a melting point of 147 °C. For `CCOC(=O)c1sc2[nH]c(=O)c(=O)[nH]c2c1CC`, the melting point was over 300 °C. `CC(=O)NS(=O)(=O)c1ccc(C2=C(c3ccccc3)C(=O)C(C)(C)O2)cc1Cl` showed a melting point of 194 to 195 °C. Work on `CNc1cn(-c2cncc(F)c2)nc1C` yielded a melting point of 142 to 144 °C. In the case of `COC(=O)CCc1cnoc1-c1cc(Cl)c(Cl)s1`, the melting point is reported as 49 to 50 °C. `O=C(c1cccc(Cl)c1)c1sc2cc(O)ccc2c1-c1ccccc1` showed a melting point of 215 °C. `CC#CCOc1ccc(S(=O)(=O)N(C)C(C(=O)O)c2ccc(Cl)cc2)cc1` (stereo unspecified) gave a melting point of 170 to 172 °C. Work on `Cc1oc(-c2ccccc2)nc1COc1cccc(CN(O)C(N)=O)c1` yielded a melting point of 151 to 152 °C.
